Test results taken from a melting point compilation (Tetko et al.; mined from patent text by program, amines drawn as free bases though some values may be those of a salt).

melting point [°C] | SMILES
196 to 201 | COc1ccnc(OC)c1CON=C(C#N)c1cc(C)cc(C)n1
63 to 66 | CC(CO)c1ccc2c(=O)c3ccccc3ccc2c1 (stereo not drawn)
108 to 109 | CCN(CC)Cc1ccc2nc(-c3ccccc3)cc(OCc3ccccc3)c2c1
282 to 284 | CS(=O)(=O)OC[C@@H]1CN(c2ccc(O)cc2)C(=O)O1
102 to 103 | Cc1oc(-c2cccs2)nc1COc1ccc(CCCn2ccnc2)cc1
39 to 40 | CCCCOC(=O)c1ccc(OCCCC)c(C(C)=O)c1
222 | Cc1sc2cc(C(=O)NCC3(SCc4ccccc4)CCNCC3)[nH]c2c1N(C)S(=O)(=O)c1cccs1
114 to 115 | O=C1OCCC1=Cc1ccccc1OCC(O)CN1CCC(c2ccc(Cl)c(F)c2)CC1 (stereo not drawn)
40 to 43 | CCCCCCCCCCCCCCCCn1c(C2=CC(=O)c3ccccc3C2=O)ccc1C1=CC(=O)c2ccccc2C1=O
156 to 157 | Cc1cc(SCc2oc(-c3ccc(C(F)(F)F)cc3)nc2C)ccc1OCC(=O)O
145 to 146 | CCOC(=O)Nc1nc(Cc2ccccc2)c(C(=O)c2sc(NC(=O)OCC)nc2Cc2ccccc2)s1
> 300 | N#Cc1c[nH]c2c(NS(=O)(=O)c3ccc(N)nc3)cccc12
268 to 270 | CCNCC1CCN(c2nc3c(cc2F)c(=O)c(C(=O)O)cn3C2CC2)C1 (stereo not drawn)
188 to 189 | C[C@@H](n1cnc2ccc(Cl)cc2c1=O)[C@](O)(Cn1cncn1)c1ccc(F)cc1F
245 to 247 | COc1ccc(Cl)cc1N1C(=O)CN(C)C1=S
77.8 to 78.9 | CCCOCCNC(=O)C(c1ccccc1)c1ccccc1
77.1 to 77.8 | CCOC(=O)Cn1nc(-c2ccc(OC)cc2)cc(C(=O)OCC)c1=O
70 | Cc1nc(Cl)c2c(n1)c(C)nn2CC(F)(F)F
194 to 196 | CC(=O)C12OC1CC1C3CC=C4CC(O)CCC4(C)C3CCC12C (stereo not drawn)
111 to 113 | C=CCOc1ccc(OC2CCCCO2)c2c1NC(=O)CC2 (stereo not drawn)
160 | O=C1CCC(c2cccc(Cl)c2)(c2cccc(Cl)c2)[C@@H]2CN(C(=O)Cc3ccccc3)C[C@H]12 (racemic)
94.6 to 94.8 | CCOC(=O)c1cnc(Oc2cc(OCCOC)ccc2CCCOC(=O)NCC2CC2)c(Cl)c1
82 to 84 | CCCc1c(OCc2ccccc2)ccc2c1OC(C(=O)OC)(C1CC1C(=O)OC)CC2 (stereo not drawn)

melting point [°C] | SMILES
244 | N#Cc1ccc(C(=O)N[C@H]2CC[C@H](CCN3CCN(c4nccc5c4CCO5)CC3)CC2)cc1
126 to 129 | N#Cc1ccc(N2CC=C(N3CCCC3)CC2)cc1
184 to 186 | COC(=O)c1cccc(NC(=O)Oc2ccc([N+](=O)[O-])cc2)c1
179 to 181 | NC1=Nc2ccccc2Cn2cccc21
> 340 | O=C(O)c1c[nH]c2cc(C(F)(F)F)nn2c1=O
173 to 174 | Oc1ccc(Cn2ccn(C3CCc4ccccc4C3)c2=S)cc1O (stereo not drawn)
68 | COC(=O)c1cncs1
87 | CCOC(=O)c1cnn(-c2ccc(OCC(C)C)c(C#N)c2)c1Cl
95 to 96 | CC(C)(C)OC(=O)[C@@H]1CC[C@H](CC(=O)O)N1Cc1ccccc1
151 to 153 | CCC(CC)Oc1cc(C)nc2c1n(C)c(=O)n2-c1c(C)cc(C)cc1C
182 to 183 | NC(=O)c1c(N)nn(-c2ccccc2)c1N
163 to 164 | Cc1nn(-c2cc(OC(C)C)c(Cl)cc2Cl)c(=O)[nH]c1=O
111 to 112 | COC(=O)/C(=C/c1ccc(OCCN(C)c2nc3ccccc3o2)cc1)OCC(=O)O
215 to 220 | CCCCc1nc2cccc(C(=O)OC)c2n1Cc1ccc(-c2cncnc2-c2nnn[nH]2)cc1
138 to 139 | COC(c1ccc(Cl)c2nc3n(c12)CCCN3c1ccc(Cl)cc1Cl)C1CC1 (stereo not drawn)
138 to 140 | CCC(C)(CC)c1nnc(N)s1
71 to 72 | CCCn1nc(OCc2ccc3ccccc3n2)cc1C(=O)OC
189 to 190 | O=C(O)c1cc(C(F)(F)F)cc(Cl)c1-n1cnc(C(F)(F)C(F)(F)F)cc1=O
157 to 159 | CCOc1ccc(N=c2ccn3ccccc3c2)cc1
207 to 209 | COc1cccc(C(=O)Nc2ccc(N3CCN(CC(N)=O)CC3)cc2)c1-c1ccc(C(C)C)cc1
88 to 89 | Cc1oc(C)c(C(=O)OC2CC(C)(C)N(CC#N)C(C)(C)C2)c1C
150 to 152 | COc1ccc(C2CCN(c3c(C)c(C)c4c(c3C)C(O)(c3ccc(F)cc3)C(C)(C)O4)CC2)cc1OC (stereo not drawn)
64 to 65 | COC(=O)c1cc(N=[N+]=[N-])ccc1Nc1ccccc1

melting point [°C] | SMILES
161 to 162 | Cc1nc(N)c2nc(CONC(C)C)n(CCCCNC(=O)c3ccccc3)c2c1C
201 to 204 | CCN(CC)c1nc(N)nc(-c2ccc(Cl)c(Cl)c2)n1
152 to 155 | CC(=O)Oc1cc2c(c3ccccc13)Nc1ccccc1O2
160 to 162 | S=c1nc(-c2cc(Cl)sc2Cl)[nH]n1Cc1ccccc1
179 to 181 | N#Cc1ccc(-c2ccc(Cl)cc2)nc1Cl
200 | O=c1[nH]c2ccc(CCN3CCN(c4nncc5ccccc45)CC3)cc2o1
174 to 175 | CC(C(N)=O)c1ccc2c(c1)CCc1cccnc1S2 (stereo not drawn)
195 to 199 | CC(C)(C)NC(=O)[C@@H]1CCCC[C@H]1C[C@@H](O)[C@H](Cc1ccccc1)NC(=O)[C@H](CC(N)=O)NC(=O)OCc1ccccc1
175 to 177 | Cc1ccc(S(=O)(=O)N(C)c2ccc(Cl)cc2C(=O)O)cc1
169 to 172 | Cn1c(=O)c(S(C)(=O)=O)c(O)c2ccccc21
205 to 207 | CC1(C)Oc2ccc(C#N)cc2[C@@H](NC(=NC#N)N2CCN(Cc3ccccc3)CC2)[C@@H]1O (relative stereo)
152 to 154 | N#CCCNC(=O)c1cccc(-c2cncc3cc(Cc4cccc(C(F)(F)F)c4)oc23)c1
> 300 | COc1cc(-c2cc(N)n(C)c3nc(N)nc(=O)c2-3)cc(OC)c1OC
205 to 207 | COc1ccc(C(=O)n2c3c(c4ccccc42)CC(C(=O)O)(C(=O)O)CC3)cc1
103 to 104 | CCn1c(=O)c2c(C)onc2n(C)c1=O
148 to 149 | Cc1ccc2oc(-c3ccccc3)nc2n1
79 to 80 | CCN(CC)CCNC(=O)N1CCCC(S(=O)(=O)c2ccc(OCCN(C)C)cc2)C1 (stereo not drawn)
121 to 123 | O=C1NC(=O)c2c1c(-c1ccccc1Cl)cc1c2c(Br)cn1CCCO
224 to 226 | N#Cc1cc(C(F)(F)F)ccc1Oc1cccc(C(=O)O)c1
103 to 104 | C[Si](C)(O[C@@H]1c2cc(Br)ccc2-c2ccc(Br)cc2[C@H]1O[Si](C)(C)c1ccccc1)c1ccccc1 (relative stereo)
162 to 166 | Cc1cccc2nc3sc(Cl)cn3c(=O)c12
171 to 174 | O=C(NC1CCC1)c1ccc(-c2ccc3nnn(Cc4ccc5ncccc5c4)c3n2)cc1F
118 to 119 | COc1cc2c(c(Cl)c1Cl)C(=O)C(C(C)C)C2 (stereo not drawn)

melting point [°C] | SMILES
180 to 185 | CNS(=O)(=O)c1ccccc1S(=O)(=O)NC(=O)Nc1nc(C)cc(C)n1
186 to 188 | Cc1cccc(NC(=O)Cn2c3c(c4cc(Cl)c(Cl)cc42)CCN(C(=O)OC(C)(C)C)CC3)c1C
104 to 106 | CCCCCCCOc1ccc(C(=O)CCC(=O)O)cc1
170 to 174 | Nc1c(-n2cncn2)cnn1-c1c(Cl)cc(C(F)(F)F)cc1Cl
144 | COc1ccc(-c2csc3ccc([N+](=O)[O-])c(C(=O)N4CCOCC4)c23)cc1OC
82 to 84 | CN(C)CCC(Oc1ccc(N)cc1)c1ccccc1 (stereo not drawn)
140 to 143 | NS(=O)(=O)c1cccc(S(=O)(=O)NC2CCC2)c1
285 to 287 | CN1CCc2[nH]c(=O)n3nc(-c4ccccc4F)nc3c2C1
50 | CCOC(=O)c1ccc(C2=CCCCC2C(C)(C)C)cc1 (stereo not drawn)
106 to 108 | CCN(CC)CCNC(=O)c1cc(Cl)nc2ccc(I)cc12
183 to 185 | Cc1ccc(C2=C(c3ccc(S(C)(=O)=O)cc3)C(=O)N(C)C2)cc1
213 to 216 | COC(=O)CC(SC(C)=O)C(CC(C)C)C(=O)NC1CCCCCCCCCCNC1=O (stereo not drawn)
185 to 190 | CCOc1ccc(C2SC(=N)NC2=N)cc1OCC (stereo not drawn)
50 | O=C1OC(=O)C2CC(F)(F)CC12 (stereo not drawn)
198 to 200 | CC1CC(=O)c2cccc(C(N)=S)c21 (stereo not drawn)
72 to 76 | C=CCOCc1ccc(-c2ncccc2S(=O)(=O)Nc2ncc(C)nc2OC)cc1
200 to 202 | O=C(/C=C/c1ccc2ccccc2c1)N1CCN(Cc2cccc(CN3CCN(C(=O)/C=C/c4ccc5ccccc5c4)CC3)n2)CC1
148 to 150 | CC1(C)CCC(N2c3ccccc3Oc3ccccc32)=N1
213 to 214 | CCOC(=O)c1sc(NC(C)=O)nc1CCc1ccc(NC(=O)OC(C)(C)C)cc1
210 to 212 | CC(=O)Nc1c(C(=O)c2ccccc2)[nH]c2ccc([N+](=O)[O-])cc12

SMILES | melting point [°C]
CN1C(=O)C(N)N=C(c2ccccc2)c2cnccc21 (stereo not drawn) | 109 to 123
CNc1ccc(NC(=O)c2cc3cc(F)ccc3n2Cc2cccc(F)c2)cn1 | 225 to 227
CC(C)CC(C)(C#N)N=NC(C)(C#N)CC(C)C (stereo not drawn) | 52 to 56
CCC1CC(=O)CC2CCC3C4CCC(OC(C)=O)C4(C)CCC3C12C (stereo not drawn) | 159
CCCCCC(C)C(C)c1cc(O)c2c3c(c(=O)oc2c1)CSCC3 (stereo not drawn) | 150 to 152
COc1ccc(-c2cc(NC(=O)Nc3ccc(N(CCCl)CCCl)cc3)c3cc(OC)ccc3n2)cc1 | 112 to 113
COC(=O)c1nc(C)n2c1CN=C(c1ccccc1Cl)c1cc(Cl)ccc1-2 | 225 to 227
CN(C)Cc1nnc2n1-c1ccccc1C(c1ccccc1Cl)=NC2 | 143 to 145
O=C(Nc1cccc(Br)c1)NC1N=C(c2ccccc2F)c2ccccc2N(CC(=O)N2CC3CCC(CC3)C2)C1=O (racemic) | 173 to 186
